Test results taken from US11565005B2, “Dota-hapten compositions for anti-dota/anti-tumor antigen bispecific antibody pretargeted radioimmunotherapy” (MEMORIAL SLOAN KETTERING CANCER CENTER, priority 2017, dated 2023).

How the values were obtained:
[1] = Dose-escalation toxicology study of [^225Ac]Proteus-DOTA in healthy nude mice; type: in vivo
Description: The maximum tolerated dose was not reached. Treated animal weights plotted as the percentage of pre-treatment baseline weight. Asterisk (*) indicates mouse required euthanasia or was discovered deceased. Data is presented as mean ±SD.
Toxicology study of [^225Ac]Pr-DOTA in healthy mice. A dose-escalation toxicity study was performed to evaluate any morbidity and histopathological damage attributed to [^225Ac]Proteus-DOTA. […] Unscheduled mortality (mice found dead or found sick and euthanized) were submitted for pathology. […] A total of three unscheduled mortalities occurred: 2/5 from the 0.5 μCi dose group; one on day 36 that was submitted for necropsy because of 20% weight loss-no gross pathologic or histopathologic lesions were observed, and no significant findings were observed on hematology and serum chemistry; and by the time the other mouse was found dead on day 144, necropsy was not possible. In addition, one mouse from group 8 μCi was euthanized after 123 days with a Staphylococcus bacterial infection. The significant findings in this mouse were histiocytic and eosinophilic myocardis, eosinophilic interstitial pneumonia, soft tissue hemorrhages, marked thrombocytopenia, and mild anemia with elevation of reticulocytes. The myocarditis, pnemonia, and mild anemia were related to some findings observed at scheduled sacrifice. Such thrombocytopenia with secondary hemorrhages was not observed in other mice in this study. Serum chemistry was unremarkable.

[2] = system: HER2-expressing BT-474 xenografts; experiment: Ex vivo biodistribution of BsAb/hapten complex or hapten alone in BT-474 tumor-bearing mice; design: species or system athymic nude mice; settings: 4 h after injection
Description: The ^225Ac-Proteus-DOTA haptens were injected intravenously via the lateral tail vein and euthanized 4 hours later for organ collection and radioactivity assessment. Asterisk (*) indicates levels below the limit of detection. Two groups of nude mice with subcutaneous BT474 tumors (3 mice each) were treated with either: [^225Ac Proteus-DOTA] only (0.51 nmol/mouse; ˜30 nCi of ^225Ac/mouse) or PD10-purified [anti-HER2-C825/[^225Ac Proteus-DOTA] complex (estimate 1.79 nmol of ^225Ac Proteus-DOTA/mouse, 1.0 nmol of antibody/mouse; 100 nCi ^225Ac/mouse), and sacrificed 4 h post-injection for ex vivo biodistribution assay. The tissue samples were read in the gamma counter the following day at equilibrium.
Biodistribution Experiments.
To determine whether isolated BsAb/[^225Ac]Proteus-DOTA complexes could target tumors in vivo, a biodistribution assay was conducted after SEC purification with two groups of athymic nude mice (n=3) bearing subcutaneous HER2-expressing BT-474 xenografts. […]

anti-HER2-C825 = experiment: In vitro mixing with DOTA-PRIT BsAb followed by size-exclusion chromatography; type: binding
Description: In vitro Mixing of [^225Ac]Proteus-DOTA with a DOTA-PRIT BsAb, followed by In vivo Targeting Studies. […] After one week of storage of [^225Ac]Proteus-DOTA at room temperature, an in vitro mixing experiment consisting of mixing 145 μL of 6.91 mg/mL of anti-HER2-C825 (4.8 nmol of BsAb or 9.6 nmol of C825) and 90 μL of [^225Ac]Proteus-DOTA (488 nCi/8.64 nmol) for 1 h at room temperature (final volume 235 μL). As a control, 1 mg of trastuzumab (6.67 nmol) with also mixed in vitro with 90 μL of [^225Ac]Proteus-DOTA (468 nCi/8.64 nmol) in the same manner as the anti-HER2-C825. These two solutions were run separately on PD-10 size-exclusion columns pre-equilibrated with saline+1% human serum albumin, and were compared with the column elution of 90 μL (488 nCi/8.64 nmol) of [^225Ac]Proteus-DOTA only. Elution fractions were counted on the gamma-counter using an open window setting.
This was done by mixing the BsAb (˜210 kD) in slight molar excess to [^225Ac]Proteus-DOTA (9.6 nmol of C825/8.6 nmol of [^225Ac]Proteus-DOTA), followed by incubation at room temperature for 1 hour.

For `O=C([O-])CN1CCN(CC(=O)[O-])CCN(CC(=O)NCCOCCOCCOCCOCCNC(=S)Nc2ccc(CC3CN(CC(=O)[O-])CCN(CC(=O)[O-])CCN(CC(=O)[O-])CCN3CC(=O)[O-])cc2)CCN(CC(=O)[O-])CC1.[225Ac+3].[Lu+3]` (centres unmarked) [[^225Ac]Proteus-DOTA], the “toxicity (defined as >10% weight loss)” value ([1]; 0.25-8 μCi/mouse, 145 days) was “no toxicity was observed”, the “mice affected by histiocytic and eosinophilic inflammation” value (shortened to “mice affected”) ([1]; 0.25 μCi) was 0/5 and the “mice affected” value ([1]; 0.5 μCi) was 0/4. The unscheduled mortalities ([1]; 0.5 μCi dose group (day 36 and day 144)) was 2/5, the “mice affected” value ([1]; 1 μCi) was 0/5 and the “mice affected” value ([1]; 2 μCi) was 1/5. The “mice affected” value ([1]; 4 μCi) was 1/5, the “mice affected” value ([1]; 8 Ci group) was 3/5 and the “unscheduled mortalities (euthanized, Staphylococcus bacterial infection)” value ([1]; 8 μCi group, after 123 days) was “one”. The “organ weights at necropsy” value ([1]; 145 days, varying dose levels) was “No significant group differences”, the “unscheduled mortalities, total” value ([1]; all dose groups, 145 days) was “three” and the “radiation-induced histologic organ damage at necropsy” value ([1]; any dose level, 145 days) was “no radiation-induced histologic organ damage”. For the same molecule, the “effect on serum chemistry” value ([1]; any dose level, n=29) was “No effect”, the “overall toxicity, acute or chronic radiation damage to normal tissues” value ([1]; doses as high as 8 μCi (296 kBq)/mouse) was “nontoxic” and the “decrease of red blood cells mass” value ([1]; highest dose group (8 μCi)) was about 10%. For the same molecule, the maximum tolerated dose ([1]; single i.v. doses 0.25-8 μCi/mouse) was “not reached”, the “uptake in all assayed tissues” value [2] was at most 2 % ID/g and the tumor accumulation ([2]; BT-474 xenograft, i.v., n=3) was 0.50±0.34 % ID/g. For the same molecule, the “remaining activity recovered in elution fractions between 4.6-7.1 mL” value (anti-HER2-C825; PD-10 size-exclusion column) was 90% and the “recovered ^225Ac-activity eluting within the first 4.1 mL” value (anti-HER2-C825; PD-10 size-exclusion column after 1 h mixing at room temperature) was 9.3%.
